According to patent publication US12091409B2, “Ether linked triazoles as NRF2 activators” (ASTEX THERAPEUTICS LIMITED, priority 2016, dated 2024):
Structures can show the parent of a compound that is named as a salt.

system: NQO1 specific enzyme activity in BEAS-2B cells (marker for NRF2 activation); test: BEAS-2B NQO1 MTT Assay; assay type: cell-based; conditions: Homo sapiens, BEAS-2B, 48 h, NQO1 specific activity induction, 48 hours with compound
Summary of the method: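 Cells plated overnight at 37° C., 5% CO2, then exposed to compound for 48 hours. NQO1 activity read in crude lysates with MTT cocktail as kinetic absorbance at 570 nm over 30 minutes. pEC50 from Delta OD/min versus log concentration with a 3-parameter fit.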

Row | Compound | EC50 [nM]
1 | Cc1ccc(C(OCc2cn(Cc3cccc(Cn4cc(CCC(=O)O)nn4)c3)nn2)C(C)(C)C(=O)O)cc1CN1C[C@@H](C)Oc2ccccc2S1(=O)=O (stereo partly drawn) [Example 45, 3-((1-(3-((4-(2-Carboxyethyl)-1H-1,2,3-triazol-1-yl)methyl)benzyl)-1H-1,2,3-triazol-4-yl)methoxy)-2,2-dimethyl-3-(4-methyl-3-(((R)-4-methyl-1,1-dioxido-3,4-dihydro-2H-benzo[b][1,4,5]oxathiazepin-2-yl)methyl)phenyl)propanoic acid] | 100 to 1000
2 | CC[C@@H]1CN(Cc2cc(C(OCc3cn(Cc4cccc(Cn5cc(COC(c6ccc(C)c(CN7C[C@@H](CC)Oc8ccccc8S7(=O)=O)c6)C(C)(C)C(=O)O)nn5)c4)nn3)C(C)(C)C(=O)O)ccc2C)S(=O)(=O)c2ccccc2O1 (stereo partly drawn) [Example 47, (R)-3,3′-(((1,1′-(1,3-phenylenebis(methylene))bis(1H-1,2,3-triazole-4,1-diyl))bis(methylene))bis(oxy))bis(3-(3-(((R)-4-ethyl-1,1-dioxido-3,4-dihydro-2H-benzo[b][1,4,5]oxathiazepin-2-yl)methyl)-4-methylphenyl)-2,2-dimethylpropanoic acid)] | 10 to 100
3 | Cc1ccc(C(OCc2cn(Cc3ccc(Cn4cc(COC(c5ccc(C)c(CN6C[C@@H](C)Oc7ccccc7S6(=O)=O)c5)C(C)(C)C(=O)O)nn4)cc3)nn2)C(C)(C)C(=O)O)cc1CN1C[C@@H](C)Oc2ccccc2S1(=O)=O (stereo partly drawn) [Example 48, (R)-3,3′-(((1,1′-(1,4-phenylenebis(methylene))bis(1H-1,2,3-triazole-4,1-diyl))bis(methylene))bis(oxy))bis(2,2-dimethyl-3-(4-methyl-3-(((R)-4-methyl-1,1-dioxido-3,4-dihydro-2H-benzo[b][1,4,5]oxathiazepin-2-yl)methyl)phenyl)propanoic acid)] | 10 to 100
4 | CCCN1CCC(Cn2cc(COC(c3ccc(C)c(CN4C[C@@H](C)Oc5ccccc5S4(=O)=O)c3)C(C)(C)C(=O)O)nn2)CC1 (stereo partly drawn) [Example 52, 2,2-Dimethyl-3-(4-methyl-3-(((R)-4-methyl-1,1-dioxido-3,4-dihydro-2H-benzo[b][1,4,5]oxathiazepin-2-yl)methyl)phenyl)-3-((1-((I-propylpiperidin-4-yl)methyl)-1H-1,2,3-triazol-4-yl)methoxy)propanoic acid] | 100 to 1000
5 | Cc1ccc(C(OCc2cn(CC3CCNCC3)nn2)C(C)(C)C(=O)O)cc1CN1C[C@@H](C)Oc2ccccc2S1(=O)=O (stereo partly drawn) [Example 53, 2,2-Dimethyl-3-(4-methyl-3-(((R)-4-methyl-1,1-dioxido-3,4-dihydro-2H-benzo[b][1,4,5]oxathiazepin-2-yl)methyl)phenyl)-3-((1-(piperidin-4-ylmethyl)-1H-1,2,3-triazol-4-yl)methoxy)propanoic Acid, Formic Acid Salt] | 100 to 1000
6 | CCn1cc(COC(c2ccc(C)c(CN(CC3CCCCCC3)C(C)=O)c2)C(C)(C)C(=O)O)nn1 (stereo not drawn) [Example 54, 3-(3-((N-(cycloheptylmethyl)acetamido)methyl)-4-methylphenyl)-3-((1-ethyl-1H-1,2,3-triazol-4-yl)methoxy)-2,2-dimethylpropanoic acid] | 100 to 1000
7 | Cc1ccc(C(OCc2cn(CC3CCN(C4CCN(C)CC4)CC3)nn2)C(C)(C)C(=O)O)cc1CN1C[C@@H](C)Oc2ccccc2S1(=O)=O (stereo partly drawn) [Example 55, 2,2-Dimethyl-3-(4-methyl-3-(((R)-4-methyl-1,1-dioxido-3,4-dihydro-2H-benzo[b][1,4,5]oxathiazepin-2-yl)methyl)phenyl)-3-((1-((1′-methyl-[1,4′-bipiperidin]-4-yl)methyl)-1H-1,2,3-triazol-4-yl)methoxy)propanoic Acid, Formic Acid Salt] | 100 to 1000
8 | COC(=O)C(C)(C)C(OCc1cn(Cc2cccc(-c3ccnc(C(=O)O)c3)c2)nn1)c1ccc(C)c(CN2C[C@@H](C)Oc3ccccc3S2(=O)=O)c1 (stereo partly drawn) [Example 57, 4-(3-((4-((3-Methoxy-2,2-dimethyl-1-(4-methyl-3-(((R)-4-methyl-1,1-dioxido-3,4-dihydro-2H-benzo[b][1,4,5]oxathiazepin-2-yl)methyl)phenyl)-3-oxopropoxy)methyl)-1H-1,2,3-triazol-1-yl)methyl)phenyl)picolinic acid] | 100 to 1000
9 | COC(=O)C(C)(C)C(OCc1cn(Cc2cccc(-c3cccc(C(=O)O)n3)c2)nn1)c1ccc(C)c(CN2C[C@@H](C)Oc3ccccc3S2(=O)=O)c1 (stereo partly drawn) [Example 58, 6-(3-((4-((3-Methoxy-2,2-dimethyl-1-(4-methyl-3-(((R)-4-methyl-1,1-dioxido-3,4-dihydro-2H-benzo[b][1,4,5]oxathiazepin-2-yl)methyl)phenyl)-3-oxopropoxy)methyl)-1H-1,2,3-triazol-1-yl)methyl)-phenyl)picolinic acid] | 100 to 1000
10 | COC(=O)C(C)(C)C(OCc1cn(Cc2cccc(-c3ccc(C(=O)O)cn3)c2)nn1)c1ccc(C)c(CN2C[C@@H](C)Oc3ccccc3S2(=O)=O)c1 (stereo partly drawn) [Example 59, 6-(3-((4-((3-Methoxy-2,2-dimethyl-1-(4-methyl-3-(((R)-4-methyl-1,1-dioxido-3,4-dihydro-2H-benzo[b][1,4,5]oxathiazepin-2-yl)methyl)phenyl)-3-oxopropoxy)methyl)-1H-1,2,3-triazol-1-yl)methyl)-phenyl)nicotinic acid] | 1000 to 10000
11 | CC[C@@H]1CN(Cc2cc(C(OCc3cn(CC)nn3)C(F)(F)C(=O)O)ccc2C)S(=O)(=O)c2ccccc2O1 (stereo partly drawn) [Example 60, 3-(3-(((R)-4-Ethyl-1,1-dioxido-3,4-dihydro-2H-benzo[b][1,4,5]oxathiazepin-2-yl)methyl)-4-methylphenyl)-3-((1-ethyl-1H-1,2,3-triazol-4-yl)methoxy)-2,2-difluoropropanoic acid] | 100 to 1000
12 | CCn1cc(CO[C@H](c2ccc(C)c(CN3C[C@@H](C)Cc4ccncc4S3(=O)=O)c2)C(C)(C)C(=O)O)nn1 [Example 61, (3R)-((1-ethyl-1H-1,2,3-triazol-4-yl)methoxy)-2,2-dimethyl-3-(4-methyl-3-(((S)-4-methyl-1,1-dioxido-4,5-dihydropyrido[4,3-f][1,2]thiazepin-2(3H)-yl)methyl)phenyl)propanoic acid] | < 1
13 | CCn1cc(CO[C@H](c2ccc(C)c(CN3C[C@@H](C)Cc4ncccc4S3(=O)=O)c2)C(C)(C)C(=O)O)nn1 [Example 62, (3R)-((1-ethyl-1H-1,2,3-triazol-4-yl)methoxy)-2,2-dimethyl-3-(4-methyl-3-(((S)-4-methyl-1,1-dioxido-4,5-dihydropyrido[2,3-f][1,2]thiazepin-2(3H)-yl)methyl)phenyl)propanoic acid] | < 1
14 | CCn1cc(CO[C@@H](c2ccc(C)c(CN3C[C@H](C)Cc4ccncc4S3(=O)=O)c2)C(C)(C)C(=O)O)nn1 [Example 63, (3S)-((1-ethyl-1H-1,2,3-triazol-4-yl)methoxy)-2,2-dimethyl-3-(4-methyl-3-(((R)-4-methyl-1,1-dioxido-4,5-dihydropyrido[4,3-f][1,2]thiazepin-2(3H)-yl)methyl)phenyl)propanoic acid] | 1000 to 10000
15 | CCn1cc(CO[C@@H](c2ccc(C)c(CN3C[C@H](C)Cc4ncccc4S3(=O)=O)c2)C(C)(C)C(=O)O)nn1 [Example 64, (3S)-((1-ethyl-1H-1,2,3-triazol-4-yl)methoxy)-2,2-dimethyl-3-(4-methyl-3-(((R)-4-methyl-1,1-dioxido-4,5-dihydropyrido[2,3-f][1,2]thiazepin-2(3H)-yl)methyl)phenyl)propanoic acid] | 100 to 1000
16 | CCn1cc(CO[C@@H](c2ccc(C)c(CN3C[C@H](C)Cc4ccccc4S3(=O)=O)c2)C(C)(C)C(=O)O)nn1 [Example 65, (3S)-((1-ethyl-1H-1,2,3-triazol-4-yl)methoxy)-2,2-dimethyl-3-(4-methyl-3-(((R)-4-methyl-1,1-dioxido-4,5-dihydrobenzo[f][1,2]thiazepin-2(3H)-yl)methyl)phenyl)propanoic acid] | 100 to 1000
17 | CCn1cc(CO[C@H](c2ccc(C)c(CN3C[C@H](C)Cc4ccncc4S3(=O)=O)c2)C(C)(C)C(=O)O)nn1 [Example 66, (3R)-((1-ethyl-1H-1,2,3-triazol-4-yl)methoxy)-2,2-dimethyl-3-(4-methyl-3-(((R)-4-methyl-1,1-dioxido-4,5-dihydropyrido[4,3-f][1,2]thiazepin-2(3H)-yl)methyl)phenyl)propanoic acid] | 100 to 1000
18 | CCCn1cc(CO[C@H](c2ccc(C)c(CN3C[C@H](C)Cc4ccncc4S3(=O)=O)c2)C(C)(C)C(=O)O)nn1 [Example 67, (R)-2,2-dimethyl-3-(4-methyl-3-(((R)-4-methyl-1,1-dioxido-4,5-dihydropyrido[4,3-f][1,2]thiazepin-2(3H)-yl)methyl)phenyl)-3-((1-propyl-1H-1,2,3-triazol-4-yl)methoxy)propanoic acid] | 100 to 1000
19 | CCn1cc(CO[C@H](c2ccc(C)c(CN3C[C@H](C)Cc4ncccc4S3(=O)=O)c2)C(C)(C)C(=O)O)nn1 [Example 68, (3R)-((1-ethyl-1H-1,2,3-triazol-4-yl)methoxy)-2,2-dimethyl-3-(4-methyl-3-(((R)-4-methyl-1,1-dioxido-4,5-dihydropyrido[2,3-f][1,2]thiazepin-2(3H)-yl)methyl)phenyl)propanoic acid] | 10 to 100
20 | CC[C@@H]1Cc2ccccc2S(=O)(=O)N(Cc2cc([C@H](OCc3cn(CC)nn3)C(C)(C)C(=O)O)ccc2C)C1 [Example 69, (3S)-((1-ethyl-1H-1,2,3-triazol-4-yl)methoxy)-2,2-dimethyl-3-(4-methyl-3-(((R)-4-ethyl-1,1-dioxido-4,5-dihydrobenzo[f][1,2]thiazepin-2(3H)-yl)methyl)phenyl)propanoic acid] | 10 to 100
21 | CCn1cc(CO[C@H](c2ccc(C)c(CN3C[C@H](C)Cc4ccccc4S3(=O)=O)c2)C(C)(C)C(=O)O)nn1 [Example 70, (3R)-((1-ethyl-1H-1,2,3-triazol-4-yl)methoxy)-2,2-dimethyl-3-(4-methyl-3-(((R)-4-methyl-1,1-dioxido-4,5-dihydrobenzo[f][1,2]thiazepin-2(3H)-yl)methyl)phenyl)propanoic acid] | 10 to 100
